Measurements: patent US20240384268A1, “Oligonucleotides” (Hudson Institute of Medical Research, priority 2021, published 2024)
In the oligonucleotide strings, read from the 5' end, every base follows the letter of its sugar. An asterisk marks phosphorothioate; unmarked linkages are phosphodiester. Other units and linkages are bracketed, terminal groups are in braces. A string of capitals states the bases alone. d = 2'-deoxy (DNA); m = 2'-O-methyl

target: T1, TLR8 (Homo sapiens, UniProt Q9NR97); assay: HEK-TLR8 NF-κB-luciferase reporter, R848 or Motolimod stimulation (potentiation or inhibition); assay type: cell-based; design: expressed in transfected cells; host or cells: 293XLhTLR8 (HEK293); conditions: HEK-TLR8; 500 nM ASO; fold increase relative to R848 without ASO (Alharbi et al., 2020)
T1 sequence (Q9NR97 27-1041): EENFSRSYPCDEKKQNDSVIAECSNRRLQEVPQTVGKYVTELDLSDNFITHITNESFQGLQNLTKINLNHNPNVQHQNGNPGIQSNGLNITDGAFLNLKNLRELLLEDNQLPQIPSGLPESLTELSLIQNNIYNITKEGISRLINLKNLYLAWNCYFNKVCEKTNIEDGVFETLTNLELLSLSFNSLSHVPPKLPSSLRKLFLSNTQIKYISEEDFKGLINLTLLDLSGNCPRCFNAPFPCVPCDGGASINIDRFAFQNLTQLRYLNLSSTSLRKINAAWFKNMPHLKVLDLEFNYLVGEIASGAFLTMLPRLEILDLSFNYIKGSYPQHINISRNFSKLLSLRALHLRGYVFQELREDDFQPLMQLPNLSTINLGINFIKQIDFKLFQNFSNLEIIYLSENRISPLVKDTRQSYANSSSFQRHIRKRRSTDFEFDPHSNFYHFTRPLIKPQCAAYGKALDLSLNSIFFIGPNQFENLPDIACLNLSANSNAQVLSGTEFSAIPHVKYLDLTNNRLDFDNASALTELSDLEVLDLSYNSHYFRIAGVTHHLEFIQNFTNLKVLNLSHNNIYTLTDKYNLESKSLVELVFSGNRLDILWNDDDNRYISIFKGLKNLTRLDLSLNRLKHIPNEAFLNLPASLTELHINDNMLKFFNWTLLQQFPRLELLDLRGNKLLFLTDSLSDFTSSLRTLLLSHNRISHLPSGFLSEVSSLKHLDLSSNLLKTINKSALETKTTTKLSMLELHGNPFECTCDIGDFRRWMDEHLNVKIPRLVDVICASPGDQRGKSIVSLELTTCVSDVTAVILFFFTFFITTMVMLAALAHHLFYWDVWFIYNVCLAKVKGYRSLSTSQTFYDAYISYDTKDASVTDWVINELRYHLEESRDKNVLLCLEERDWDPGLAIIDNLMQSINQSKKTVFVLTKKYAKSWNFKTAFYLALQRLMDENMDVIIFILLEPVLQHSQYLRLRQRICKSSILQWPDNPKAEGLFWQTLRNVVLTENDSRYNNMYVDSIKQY

With “mG*mU*mU*mC*mA*G*T*C*A*G*A*T*C*G*C*mU*mG*mG*mG*mA (mG*mU*mU*mC*mA*dG*dT*dC*dA*dG*dA*dT*dC*dG*dC*mU*mG*mG*mG*mA) [[LINC-PINT]412 KL]” as the substance, how does the “TLR8-500 nM: averaged NF-κB-Luciferase relative to R848” value read?
Its value is 1.70 fold.

With “mU*mA*mA*mA*mA*T*A*A*G*G*G*G*A*A*T*mA*mG*mG*mG*mG (mU*mA*mA*mA*mA*dT*dA*dA*dG*dG*dG*dG*dA*dA*dT*mA*mG*mG*mG*mG) [[CDKN2B-AS1]80]” as the substance, how does the “TLR8-500 nM: averaged NF-κB-Luciferase relative to R848” value read?
Its value is 1.30 fold.

“mU*mC*mC*mC*mA*A*C*T*C*T*T*C*T*A*A*mC*mU*mC*mG*mU (mU*mC*mC*mC*mA*dA*dC*dT*dC*dT*dT*dC*dT*dA*dA*mC*mU*mC*mG*mU; antisense) [[LINC-PINT]1284 KL]” was tested. Which “TLR8-500 nM: averaged NF-κB-Luciferase relative to R848” value did it give?
The value was 13.35 fold.

How did the “TLR8-500 nM: averaged NF-κB-Luciferase relative to R848” value turn out when “mU*mC*mC*mC*mA*T*C*C*C*T*T*C*T*G*C*mU*mG*mA*mC*mA (UCCCATCCCTTCTGCUGACA; sugars from the 5' end m5 d10 m5, all phosphorothioate, methylation of C not given here) [[LINC-PINT]101]” was run?
Its value is 10.88 fold.

How did the “TLR8-500 nM: averaged NF-κB-Luciferase relative to R848” value turn out when “mU*mC*mU*mC*mC*A*T*G*T*C*C*C*A*G*G*mC*mC*mU*mC*mC (mU*mC*mU*mC*mC*dA*dT*dG*dT*dC*dC*dC*dA*dG*dG*mC*mC*mU*mC*mC; antisense) [[CDKN2B-AS1]2230]” was run?
Its value is 9.17 fold.

With “mU*mC*mU*mC*mU*C*T*G*G*T*C*C*C*A*T*mC*mC*mC*mU*mU (mU*mC*mU*mC*mU*dC*dT*dG*dG*dT*dC*dC*dC*dA*dT*mC*mC*mC*mU*mU; antisense) [[LINC-PINT]110]” as the substance, how does the “TLR8-500 nM: averaged NF-κB-Luciferase relative to R848” value read?
Its value is 11.27 fold.

For “mU*mC*mU*mC*mU*G*G*T*C*C*C*A*T*C*C*mC*mU*mU*mC*mU (UCUCUGGTCCCATCCCUUCU; antisense; sugars from the 5' end m5 d10 m5, all phosphorothioate, methylation of C not given here) [[LINC-PINT]108]”, which “TLR8-500 nM: averaged NF-κB-Luciferase relative to R848” value is on record?
Its value is 11.42 fold.

Which “TLR8-500 nM: averaged NF-κB-Luciferase relative to R848” value does the source give for “mU*mC*mU*mG*mG*T*C*C*C*A*T*C*C*C*T*mU*mC*mU*mG*mC (UCUGGTCCCATCCCTUCUGC; antisense; sugars from the 5' end m5 d10 m5, all phosphorothioate, methylation of C not given here) [[LINC-PINT]106]” here?
Its value is 5.25 fold.

“mU*mG*mA*mC*mA*A*A*A*C*A*A*T*A*A*T*mA*mA*mC*mA*mG (mU*mG*mA*mC*mA*dA*dA*dA*dC*dA*dA*dT*dA*dA*dT*mA*mA*mC*mA*mG) [[LINC-PINT]384]” was tested. Which “TLR8-500 nM: averaged NF-κB-Luciferase relative to R848” value did it give?
The value was 2.57 fold.

“mU*mG*mA*mC*mA*T*T*T*C*G*T*G*G*C*T*mC*mC*mU*mA*mC (mU*mG*mA*mC*mA*dT*dT*dT*dC*dG*dT*dG*dG*dC*dT*mC*mC*mU*mA*mC; antisense) [[LINC-PINT]523 KL]” was tested. Which “TLR8-500 nM: averaged NF-κB-Luciferase relative to R848” value did it give?
Its value is 4.34 fold.

“mU*mG*mA*mU*mG*A*T*G*C*T*T*G*C*A*G*mG*mA*mG*mG*mC (mU*mG*mA*mU*mG*dA*dT*dG*dC*dT*dT*dG*dC*dA*dG*mG*mA*mG*mG*mC) [[LINC-PINT|283.1]” was tested. Which “TLR8-500 nM: averaged NF-κB-Luciferase relative to R848” value did it give?
Its value is 1.57 fold.

Which “TLR8-500 nM: averaged NF-κB-Luciferase relative to R848” value does the source give for “mU*mG*mG*mC*mG*T*A*G*T*T*T*C*T*C*T*mU*mC*mC*mU*mC (mU*mG*mG*mC*mG*dT*dA*dG*dT*dT*dT*dC*dT*dC*dT*mU*mC*mC*mU*mC; antisense) [[LINC-PINT]937.1]” here?
Its value is 4.25 fold.

How did the “TLR8-500 nM: averaged NF-κB-Luciferase relative to R848” value turn out when “mU*mG*mU*mG*mA*A*A*A*G*A*T*T*A*T*C*mU*mU*mC*mU*mU (UGUGAAAAGATTATCUUCUU; sugars from the 5' end m5 d10 m5, all phosphorothioate, methylation of C not given here) [[CDKN2B-AS1]2137]” was run?
Its value is 4.97 fold.

How did the “TLR8-500 nM: averaged NF-κB-Luciferase relative to R848” value turn out when “mU*mG*mU*mU*mU*C*C*C*C*G*G*A*G*A*G*mC*mA*mA*mU*mG (UGUUUCCCCGGAGAGCAAUG; antisense; sugars from the 5' end m5 d10 m5, all phosphorothioate, methylation of C not given here) [[LINC-PINT]501 KL]” was run?
Its value is 2.04 fold.

With “mU*mU*mA*mA*mA*T*A*A*T*C*T*A*G*T*T*mU*mG*mA*mA*mG (UUAAATAATCTAGTTUGAAG; sugars from the 5' end m5 d10 m5, all phosphorothioate, methylation of C not given here) [[CDKN2B-AS1]132]” as the substance, how does the “TLR8-500 nM: averaged NF-κB-Luciferase relative to R848” value read?
Its value is 6.43 fold.

“mU*mU*mA*mG*mC*T*C*C*T*T*G*C*C*T*C*mG*mU*mU*mC*mC (mU*mU*mA*mG*mC*dT*dC*dC*dT*dT*dG*dC*dC*dT*dC*mG*mU*mU*mC*mC; antisense) [[LINC-PINT] 1222]” was tested. Which “TLR8-500 nM: averaged NF-κB-Luciferase relative to R848” value did it give?
The value was 8.41 fold.

How did the “TLR8-500 nM: averaged NF-κB-Luciferase relative to R848” value turn out when “mU*mU*mC*mU*mC*T*C*T*G*G*T*C*C*C*A*mU*mC*mC*mC*mU (mU*mU*mC*mU*mC*dT*dC*dT*dG*dG*dT*dC*dC*dC*dA*mU*mC*mC*mC*mU; antisense) [[LINC-PINT]111]” was run?
Its value is 9.51 fold.

“mU*mU*mG*mG*mC*C*T*G*T*G*G*A*T*G*C*mU*mU*mU*mG*mU (mU*mU*mG*mG*mC*dC*dT*dG*dT*dG*dG*dA*dT*dG*dC*mU*mU*mU*mG*mU) [[LINC-PINT]2673.1]” was tested. Which “TLR8-500 nM: averaged NF-κB-Luciferase relative to R848” value did it give?
The value was 0.94 fold.

How did the “TLR8-500 nM: averaged NF-κB-Luciferase relative to R848” value turn out when “mU*mU*mG*mU*mG*A*A*A*A*G*A*T*T*A*T*mC*mU*mU*mC*mU (mU*mU*mG*mU*mG*dA*dA*dA*dA*dG*dA*dT*dT*dA*dT*mC*mU*mU*mC*mU) [[CDKN2B-AS1]2138]” was run?
Its value is 1.94 fold.

How did the “TLR8-500 nM: averaged NF-κB-Luciferase relative to R848” value turn out when “mU*mU*mU*mG*mA*A*A*T*T*C*A*G*A*A*G*mA*mU*mU*mU*mG (mU*mU*mU*mG*mA*dA*dA*dT*dT*dC*dA*dG*dA*dA*dG*mA*mU*mU*mU*mG) [[LINC PINT|2690]” was run?
Its value is 4.93 fold.
